Patent US6057333A, “Discorhabdin compounds and methods of use” (Harbor Branch Oceanographic Institution, Inc., priority 1998, dated 2000)
Values after ≈ are worked out from the molar mass of the structure shown.

Legend:
[1] = test system: P388 cells; test: P388 antiproliferative (MTT) assay; type: cell-based; conditions: Mus musculus, 48 hr exposure
Procedure: (§1) P388 cells are obtained from Dr. J. Mayo, National Cancer Institute, Bethesda, Md., and A549 cells are obtained from American Type Culture Collection, Rockville, Md. All cell lines are maintained in Roswell Park Memorial Institute (RPMI) medium 1640 supplemented with 10% horse serum. All cell lines are cultured in plastic tissue culture flasks and kept in an incubator at 37° C. in humidified air containing 5% CO2. Prior to testing, antibiotic-free stock cultures of each of the cell lines are subcultured to 10^6 cells/ml by dilution in fresh growth medium at 2 to 3 day intervals.
(§2) To assess the antiproliferative effects of agents against the P388 cell line, 200 μl cultures (96-well tissue culture plates, Nunc, Denmark) are established at 1×10^5 cells/ml in drug-free medium or medium containing the test agent at 10.0, 1.0, 0.10 and 0.010 μg/ml. Solvent for all dilutions ethanol. All experimental cultures are initiated in medium containing Gentamycin sulfate (50 μg/ml; Schering Corporation, Kenilworth, N.J.). After48 hr exposures, P388 cells are enumerated using 3-[4,5-Dimethylthiazol-2-yl]-2,5-diphenyltetrazolium bromide (MTT).
To quantitate the effects on cell proliferation and resulting IC50 values, 75 μl of warm growth media containing 5 mg/ml MTT is added to each well, cultures returned to the incubator, and left undisturbed for 90 minutes. […]

[2] = test system: A549 cells; test: A549 antiproliferative (MTT) assay; type: cell-based; conditions: Homo sapiens, additional 48 hr exposure prior to MTT addition
Procedure: as §1, §2
[…] Results are expressed as percent inhibition compared to the negative (no drug) control. Positive drug controls are included to monitor drug sensitivity of each of the cell lines. […]

[3] = biological target: T1, calcineurin (Bos taurus, UniProt P48452); test: Calcineurin assay (p-nitrophenylphosphate phosphatase activity); type: biochemical, bovine; conditions: pH 7.5, 30° C., 60 min
T1 construct: Calcineurin was prepared from bovine brain; from tissue; host or cells: bovine brain
T1 sequence (P63099 2-170, other chains not shown): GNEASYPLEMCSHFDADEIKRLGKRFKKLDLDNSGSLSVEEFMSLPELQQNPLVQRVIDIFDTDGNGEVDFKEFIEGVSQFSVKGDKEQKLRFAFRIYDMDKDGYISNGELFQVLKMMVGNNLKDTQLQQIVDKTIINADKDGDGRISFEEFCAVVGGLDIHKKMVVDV
Procedure: Calmodulin was prepared from bovine brain according to the method of Wallace et al. ([1983] Meth. Enzymol. 102:39-47). The calmodulin was either used directly or coupled to sepharose-4B to form the calmodulin-sepharoseaffinity column necessary for the isolation of calcineurin. Calcineurin was prepared from bovine brain by the method of Tallant et al. ([1983] Meth. Enzymol. 102:244-286), concentrated, aliquoted and stored at -80° C.
Calcineurin activity was assayed in 96-well microtiter plates in a final volume of 50 μl. Each well contained 50 mM Tris-HCl pH 7.5, 0.5 mM MnCl2, 0.05 mM CaCl2, 1 mM DTT, 50 mM p-nitrophenylphosphate (pNPP), 0.3 μg calcineurin, a five-fold excess of calmodulin, and either test samples or control compounds. Plates were incubated at 30° C. for 60 min. Liberated p-nitrophenol was determined by the change in absorbance at 405 nm.

[4] = biological target: T2, CPP32 (Homo sapiens, UniProt P42574); test: Caspase inhibition (CPP32, Ac-DEVD-pNA substrate); type: biochemical; conditions: Ac-DEVD-pNA 25 μM, pH 7.5, 30 degrees C., 30 minutes
T2 construct: BASF, Worchester, Mass; (gift, not a purchase)
T2 sequence (P42574 29-175 limits assumed): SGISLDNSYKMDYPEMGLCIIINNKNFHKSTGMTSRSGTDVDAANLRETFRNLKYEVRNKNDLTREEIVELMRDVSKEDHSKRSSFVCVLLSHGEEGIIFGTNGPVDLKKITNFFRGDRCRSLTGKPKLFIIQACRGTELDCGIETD
T2 sequence (P42574 176-277 limits assumed): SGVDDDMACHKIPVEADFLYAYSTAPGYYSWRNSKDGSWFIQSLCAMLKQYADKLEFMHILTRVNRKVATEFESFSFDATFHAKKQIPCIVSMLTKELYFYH
Procedure: Test samples were aliquoted into 96 well microtiter plates and allowed to air dry. The stock CPP32 enzyme (kindly supplied by BASF, Worchester, Mass.) was diluted by adding 10 μl of the enzyme to 17 ml of reaction buffer (50 mM Hepes pH 7.5; 10% glycerol; 5 mM Dithiothreitol; 0.5 mM EDTA). A volume of 180 μl of the diluted enzyme was added to wells containing the dried test samples, or to empty wells (control). The contents of the microtiter wells were mixed by shaking on a plate shaker. Plates were incubated at 30 degrees C. for 5 minutes. […] Controls for each plate consisted of an inhibitor control (50 nM DEVD-CHO final concentration); positive control (enzyme and substrate) and negative control (reaction buffer and substrate). The plates were covered with aluminum foil and mixed using a plate shaker for 5 minutes then incubated at 30 degrees C. for 30 minutes. Plates were read using on a plate reader with absorbance measured at 405 nm. Data was expressed as percent inhibition by comparing the absorbance values of test samples with those of the positive control (no sample).

SMILES: Cn1cc2c3c1C(=O)C1=C(C3=NCC2)C2(C=C(Br)C(=O)C(Br)=C2)CCN1 [discorhabdin P]
- IC50 [1]: 0.025 µg/mL
- IC50 [2]: 0.41 µg/mL
- inhibition at 0.5 µg/mL ([3]; at 0.5 μg/ml): 33%
- inhibition at 5 µg/mL ([3]; at 5 μg/ml): 64%
- IC50 [3]: 1.15 µM
- IC50 [4]: 0.37 µg/mL (≈ 0.775 µM)
